In ChEMBL document CHEMBL4251604, “Design, synthesis and biological evaluation of 1, 4-dihydro indeno[1,2-c] pyrazole linked oxindole analogues as potential anticancer agents targeting tubulin and inducing p53 dependent apoptosis” (Eur J Med Chem, 2018):
The source made the active and inactive calls. The rule behind the calls is not given here.

Experiments:
[1] = tested on: HeLa; assay: Antiproliferative activity against human HeLa cells after 24 hrs by SRB assay; assay type: functional, cell-based
[2] = tested on: A549; assay: Antiproliferative activity against human A549 cells after 24 hrs by SRB assay; assay type: functional, cell-based; conditions: A549, 24 h
[3] = tested on: HEK293; assay: Antiproliferative activity against HEK293 cells after 24 hrs by SRB assay; assay type: cell-based; conditions: Homo sapiens, HEK293, 24 h
[4] = tested on: MDA-MB-231; assay: Antiproliferative activity against human MDA-MB-231 cells after 24 hrs by SRB assay; assay type: functional, cell-based; conditions: MDA-MB-231, 24 h
[5] = tested on: HeLa; assay: Cell cycle arrest in human HeLa cells assessed as accumulation of cells at G2/M phase at 5 uM after 24 hrs by propidium iodide staining-based flow cytometric analysis (reference value: 16.4%); assay type: functional
[6] = tested on: HeLa; assay: Inhibition of microtubules in human HeLa cells assessed as increase in cyclin B1 protein level at 5 uM affter 24 hrs by Western blot analysis; assay type: cell-based
[7] = biological target: Tubulin (Homo sapiens) (UniProt P68371+Q9H4B7+P0DPH7+P68366+Q13509+Q71U36+P04350+Q3ZCM7+P07437+P68363+Q9BQE3+Q6PEY2+Q13885+Q9BVA1+Q9BUF5); assay: Inhibition of tubulin polymerization in human HeLa cells assessed as reduction in polymerized tubulin expression at 5 uM affter 24 hrs by Western blot analysis; assay type: cell-based
[8] = tested on: HeLa; assay: Inhibition of microtubules in human HeLa cells assessed as induction of disorganized spindle fibers formation at 5 uM after 24 hrs by DAPI staining-based confocal microscopic analysis; assay type: cell-based
[9] = tested on: HeLa; assay: Inhibition of microtubules in human HeLa cells assessed as induction of cell cycle arrest in metaphase at 5 uM after 24 hrs by DAPI staining-based confocal microscopic analysis
[10] = tested on: HeLa; assay: Inhibition of microtubules in human HeLa cells assessed as increase in CDK1 protein level at 5 uM affter 24 hrs by Western blot analysis; assay type: cell-based
[11] = tested on: HeLa; assay: Induction of apoptosis in human HeLa cells assessed as increase in caspase-3 activation at 5 uM after 24 hrs by fluorescence assay; assay type: functional, cell-based
[12] = tested on: HeLa; assay: Induction of apoptosis in human HeLa cells assessed as increase in p53 expression at 5 uM after 24 hrs by Western blot analysis; assay type: functional, cell-based
[13] = tested on: HeLa; assay: Induction of apoptosis in human HeLa cells assessed as increase in p21 expression at 5 uM after 24 hrs by Western blot analysis; assay type: functional, cell-based
[14] = tested on: HeLa; assay: Induction of apoptosis in human HeLa cells assessed as increase in Bax expression at 5 uM after 24 hrs by Western blot analysis; assay type: functional, cell-based
[15] = tested on: HeLa; assay: Induction of apoptosis in human HeLa cells assessed as increase in p53 expression at 5 uM after 24 hrs by DAPI staining-based immunocytochemistry; assay type: functional, cell-based
[16] = tested on: HeLa; assay: Induction of apoptosis in human HeLa cells assessed as increase in Bax expression at 5 uM after 24 hrs by DAPI staining-based immunocytochemistry; assay type: functional, cell-based

IC50 [1] | IC50 [2] | IC50 [4] | Structure (SMILES) | IC50 [3] | also measured
25.4 µM | 26.1 µM | 23.4 µM | COc1ccc2c(c1)-c1n[nH]c(/C=C3\C(=O)Nc4cc(Br)ccc43)c1C2 | 28.6 µM | –
22.1 µM | 26 µM | 29.2 µM | COc1ccc2c(c1)-c1n[nH]c(/C=C3\C(=O)Nc4ccc([N+](=O)[O-])cc43)c1C2 | 30.8 µM | –
15.2 µM | 20.5 µM | 16.8 µM | O=C1Nc2ccc(Cl)cc2/C1=C/c1[nH]nc2c1Cc1ccccc1-2 | 24.3 µM | –
17.5 µM | 17.6 µM | 20.8 µM | COc1ccc2c(c1)-c1n[nH]c(/C=C3\C(=O)Nc4ccc(Cl)cc43)c1C2 | 27.4 µM | –
30.7 µM | 35.6 µM | 29.7 µM | O=C1Nc2cc(Br)ccc2/C1=C/c1[nH]nc2c1Cc1ccccc1-2 | 34.2 µM | –
1.33 µM | 2.44 µM | 2.08 µM | COc1cc2c(cc1OC)-c1n[nH]c(/C=C3\C(=O)Nc4cc(Cl)ccc43)c1C2 | 2.97 µM | Activity [11]: Active; Activity [5]: 30.3%; Activity [12]: Active; inhibition [6]: Active; inhibition [7]: Active; Activity [13]: Active; inhibition [8]: Active; Activity [14]: Active; inhibition [9]: Active; Activity [15]: Active; inhibition [10]: Active; Activity [16]: Active
2.16 µM | 2.92 µM | 3.45 µM | COc1cc2c(cc1OC)-c1n[nH]c(/C=C3\C(=O)Nc4ccccc43)c1C2 | 4.36 µM | Activity [11]: Active; Activity [5]: 23.6%; inhibition [6]: Active; inhibition [7]: Active; inhibition [8]: Active; inhibition [9]: Active; inhibition [10]: Active
20.5 µM | 22.5 µM | 20.4 µM | COc1cc2c(cc1OC)-c1n[nH]c(/C=C3\C(=O)Nc4cc(Br)ccc43)c1C2 | 24.6 µM | –
11.5 µM | 17.1 µM | 18.7 µM | COc1cc2c(cc1OC)-c1n[nH]c(/C=C3\C(=O)Nc4ccc(Br)cc43)c1C2 | 19.6 µM | –
16.9 µM | 21.1 µM | 20.3 µM | O=C1Nc2ccc(Br)cc2/C1=C/c1[nH]nc2c1Cc1ccccc1-2 | 22.5 µM | –

The remaining lines, values behind:

Structure (SMILES) | IC50 [1] | IC50 [2] | IC50 [4] | IC50 [3] | also measured
O=C1Nc2ccccc2/C1=C/c1[nH]nc2c1Cc1ccccc1-2 | 11.7 µM | 16.6 µM | 19 µM | 24.3 µM | –
COc1cc2c(cc1OC)-c1n[nH]c(/C=C3\C(=O)Nc4cc([N+](=O)[O-])ccc43)c1C2 | 30.7 µM | 34.4 µM | 29.9 µM | 36.7 µM | –
COc1ccc2c(c1)/C(=C/c1[nH]nc3c1Cc1cc(OC)c(OC)cc1-3)C(=O)N2 | 2.58 µM | 3.43 µM | 4.14 µM | 5.1 µM | Activity [5]: 31.3%; inhibition [6]: Active; inhibition [7]: Active; inhibition [8]: Active; inhibition [9]: Active; inhibition [10]: Active
COc1ccc2c(c1)-c1n[nH]c(/C=C3\C(=O)Nc4cc(Cl)ccc43)c1C2 | 17 µM | 20.9 µM | 19 µM | 21.9 µM | –
COc1ccc2c(c1)/C(=C/c1[nH]nc3c1Cc1ccccc1-3)C(=O)N2 | 30.1 µM | 29.6 µM | 26.7 µM | 33.9 µM | –
O=C1Nc2cc(Cl)ccc2/C1=C/c1[nH]nc2c1Cc1ccccc1-2 | 14.6 µM | 20.5 µM | 24.3 µM | 19.4 µM | –
COc1ccc2c(c1)-c1n[nH]c(/C=C3\C(=O)Nc4ccccc43)c1C2 | 16 µM | 20.6 µM | 19.3 µM | 22.5 µM | –
COc1ccc2c(c1)-c1n[nH]c(/C=C3\C(=O)Nc4ccc(Br)cc43)c1C2 | 30.9 µM | 29.8 µM | 34.1 µM | 35.8 µM | –
COc1ccc(/C=C\c2cc(OC)c(OC)c(OC)c2)cc1O [COMBRETASTATIN A4] | 1.43 µM | 1.15 µM | 0.92 µM | 1.73 µM | Activity [5]: 55.8%; inhibition [8]: Active; inhibition [9]: Active
COc1cc2c(cc1OC)-c1n[nH]c(/C=C3\C(=O)Nc4ccc(Cl)cc43)c1C2 | 8.96 µM | 13.5 µM | 12.3 µM | 9.21 µM | –
